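Each compound was tested at five concentrations against cells in 96-well plates for 48 hours. The concentration for 50% growth inhibition is given as GI50.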 Activity calls are given as the source filed them. Cut-off read from the data, not from the text of the source: active = GI50 up to about 1.1 µM and inactive = higher.
What was measured:
Assay in all cases: NCI anticancer screen, dose series, 48 h
[1] = tested on: CCRF-CEM
[2] = tested on: COLO 205
[3] = tested on: HCC 2998
[4] = tested on: HCT-116
[5] = tested on: HCT-15
[6] = tested on: HOP-62
[7] = tested on: HOP-92
[8] = tested on: IGROV-1
[9] = tested on: MDA-MB-231
[10] = tested on: MDA-MB-435
[11] = tested on: MDA-N
[12] = tested on: NCI/ADR-RES
[13] = tested on: OVCAR-3
[14] = tested on: OVCAR-4
[15] = tested on: SK-MEL-28
[16] = tested on: SK-OV-3
[17] = tested on: SNB-75
[18] = tested on: TK-10
[19] = tested on: NCI-H226

Row | Compound | GI50 [1] | GI50 [2] | GI50 [3] | GI50 [4] | GI50 [5] | GI50 [6] | GI50 [7] | GI50 [8] | GI50 [9] | GI50 [10] | GI50 [11] | GI50 [12] | GI50 [13] | GI50 [14] | GI50 [15] | GI50 [16] | GI50 [17] | GI50 [18] | GI50 [19]
1 | CCOC(=O)NC | > 100 µM (inactive) | > 100 µM (inactive) | > 100 µM (inactive) | > 100 µM (inactive) | > 100 µM | > 100 µM (inactive) | > 100 µM (inactive) | > 100 µM (inactive) | > 100 µM (inactive) | > 100 µM (inactive) | > 100 µM (inactive) | > 100 µM (inactive) | > 100 µM (inactive) | > 100 µM (inactive) | > 100 µM (inactive) | > 100 µM (inactive) | > 100 µM (inactive) | > 100 µM (inactive) | 
2 | CSc1[nH]cnc1C(N)=S |  | > 100 µM (inactive) |  | > 100 µM (inactive) |  | > 100 µM (inactive) |  | > 100 µM (inactive) | > 100 µM (inactive) | > 100 µM (inactive) | > 100 µM (inactive) | > 100 µM (inactive) | > 100 µM (inactive) |  | > 100 µM (inactive) | > 100 µM (inactive) | > 100 µM (inactive) | > 100 µM (inactive) | > 100 µM (inactive)
3 | COCCN(C(C)=O)C1CCC2(SCCS2)c2[nH]c3ccccc3c21 (stereo unspecified) | > 100 µM (inactive) | > 100 µM (inactive) | > 100 µM (inactive) | > 100 µM (inactive) | > 100 µM | > 100 µM (inactive) | 70.3 µM (inactive) | > 100 µM (inactive) | > 100 µM (inactive) | > 100 µM (inactive) | > 100 µM (inactive) | > 100 µM (inactive) | > 100 µM (inactive) |  | > 100 µM (inactive) |  | > 100 µM (inactive) | > 100 µM (inactive) | > 100 µM (inactive)
4 | COc1ccc(C2OCCN2C)cc1 (stereo unspecified) | > 100 µM (inactive) | > 100 µM (inactive) |  | > 100 µM (inactive) | > 100 µM | > 100 µM (inactive) | > 100 µM (inactive) | > 100 µM (inactive) | > 100 µM (inactive) | > 100 µM (inactive) | > 100 µM (inactive) | > 100 µM (inactive) | > 100 µM (inactive) | > 100 µM (inactive) |  | > 100 µM (inactive) | 36.9 µM (inactive) | > 100 µM (inactive) | > 100 µM (inactive)
5 | CCOC(=O)c1cc(C(O)P2(=O)N(CC(C)(C)C)[C@@H]3CCCC[C@H]3N2CC(C)(C)C)cn1C(=O)OC(C)(C)C (stereo partly specified) |  | 17.3 µM (inactive) | 16.2 µM (inactive) | 11.2 µM (inactive) | 17.1 µM | 13.7 µM (inactive) |  | 4.8 µM (inactive) | 16 µM (inactive) | 13.9 µM (inactive) | 14.8 µM (inactive) | 16.8 µM (inactive) | 12.3 µM (inactive) | 13.9 µM (inactive) | 16.6 µM (inactive) | 20 µM (inactive) |  | 22.6 µM (inactive) | 20.6 µM (inactive)
6 | O=C(O)CC[P+](c1ccccc1)(c1ccccc1)c1ccccc1 | 50.7 µM (inactive) | 14.3 µM (inactive) | > 100 µM (inactive) | 21.3 µM (inactive) | > 100 µM | 37.2 µM (inactive) |  | 15 µM (inactive) | 57.5 µM (inactive) | 26.5 µM (inactive) | 20.4 µM (inactive) | > 100 µM (inactive) | 13.5 µM (inactive) | 46.2 µM (inactive) | > 100 µM (inactive) | 88.5 µM (inactive) | 28.4 µM (inactive) | > 100 µM (inactive) | 53.5 µM (inactive)
7 | CN(C)Cc1cc(C(C)(C)C)cc(CNC2CCCCC2)c1O | 12.9 µM (inactive) | 15.9 µM (inactive) | 11.6 µM (inactive) | 25.4 µM (inactive) | 28.8 µM | 41.2 µM (inactive) | 19.5 µM (inactive) | 29.4 µM (inactive) | 42.3 µM (inactive) | 65.9 µM (inactive) | 83.8 µM (inactive) | 25.2 µM (inactive) | 29.9 µM (inactive) | 35.6 µM (inactive) | 33.3 µM (inactive) | 30.7 µM (inactive) | 52.4 µM (inactive) | 27.7 µM (inactive) | 
8 | CCO[C@@H]1CCC([S+]([O-])c2ccc(C)cc2)=CO1 (stereo partly specified) |  | > 100 µM (inactive) | > 100 µM (inactive) | > 100 µM (inactive) | > 100 µM | > 100 µM (inactive) |  | > 100 µM (inactive) | > 100 µM (inactive) | > 100 µM (inactive) | > 100 µM (inactive) | > 100 µM (inactive) | > 100 µM (inactive) | > 100 µM (inactive) | > 100 µM (inactive) |  | > 100 µM (inactive) | > 100 µM (inactive) | > 100 µM (inactive)
9 | Cc1cc2c(cc1Cl)SC(NNC(=O)c1ccco1)=NS2(=O)=O | > 10 µM (inactive) | > 10 µM (inactive) | > 10 µM (inactive) | > 10 µM (inactive) | > 10 µM | > 10 µM (inactive) |  | > 10 µM (inactive) | > 10 µM (inactive) | > 10 µM (inactive) | > 10 µM (inactive) | > 10 µM (inactive) | > 10 µM (inactive) | > 10 µM (inactive) | > 10 µM (inactive) | > 10 µM (inactive) | > 10 µM (inactive) | > 10 µM (inactive) | > 10 µM (inactive)
10 | C#CCOC(=O)C(N)CSSCC(N)C(=O)O (stereo unspecified) | > 100 µM (inactive) | > 100 µM (inactive) | > 100 µM (inactive) | > 100 µM (inactive) | > 100 µM | > 100 µM (inactive) | > 100 µM (inactive) | > 100 µM (inactive) | > 100 µM (inactive) | > 100 µM (inactive) | > 100 µM (inactive) | > 100 µM (inactive) |  | > 100 µM (inactive) | > 100 µM (inactive) |  | > 100 µM (inactive) | > 100 µM (inactive) | > 100 µM (inactive)
11 | Nc1c(Cl)ncnc1N[C@@H]1C[C@H]1CO | > 100 µM (inactive) | > 100 µM (inactive) | > 100 µM (inactive) | > 100 µM (inactive) | > 100 µM | > 100 µM (inactive) | > 100 µM (inactive) | > 100 µM (inactive) | > 100 µM (inactive) | > 100 µM (inactive) | > 100 µM (inactive) | > 100 µM (inactive) | > 100 µM (inactive) | > 100 µM (inactive) | > 100 µM (inactive) |  | 0.494 µM (active) | > 100 µM (inactive) | 
12 | O=C(O)C12C3C4(C(=O)O)C1C1(C(=O)O)C2C3(C(=O)O)C41 (stereo unspecified) | > 100 µM (inactive) | > 100 µM (inactive) | > 100 µM (inactive) | > 100 µM (inactive) | > 100 µM | > 100 µM (inactive) | > 100 µM (inactive) | > 100 µM (inactive) | > 100 µM (inactive) | > 100 µM (inactive) | > 100 µM (inactive) | > 100 µM (inactive) | > 100 µM (inactive) | > 100 µM (inactive) | > 100 µM (inactive) |  | > 100 µM (inactive) | > 100 µM (inactive) | 
13 | COc1ccccc1-c1c(C#N)c(N)[nH]c(=S)c1C#N |  | 53.6 µM (inactive) | 74.3 µM (inactive) | 41.2 µM (inactive) | > 100 µM | > 100 µM (inactive) | 62.5 µM (inactive) | 92.3 µM (inactive) | 47.6 µM (inactive) | 35.6 µM (inactive) | 25.9 µM (inactive) | > 100 µM (inactive) | 56.1 µM (inactive) | 57.8 µM (inactive) | 71.6 µM (inactive) |  |  | > 100 µM (inactive) | 31.6 µM (inactive)
14 | O=C(O)c1cccc(S(=O)(=O)NN2C(=O)CSC2c2c(O)ccc3ccccc23)c1 (stereo unspecified) | 16 µM (inactive) | 38 µM (inactive) | 52.6 µM (inactive) | 19.6 µM (inactive) | 42.5 µM | 47 µM (inactive) |  | 18 µM (inactive) | 26.8 µM (inactive) | 37.6 µM (inactive) | 37.8 µM (inactive) | 22.1 µM (inactive) | 20.6 µM (inactive) | 28.9 µM (inactive) | 26.4 µM (inactive) | 37.7 µM (inactive) | 30.6 µM (inactive) | > 100 µM (inactive) | 34.8 µM (inactive)
15 | CN(C)CCNC(=O)c1ccc(NC(=O)c2nc([N+](=O)[O-])cn2C)cc1 | > 100 µM (inactive) | > 100 µM (inactive) |  | > 100 µM (inactive) | > 100 µM | > 100 µM (inactive) | > 100 µM (inactive) | > 100 µM (inactive) | > 100 µM (inactive) | > 100 µM (inactive) | > 100 µM (inactive) | > 100 µM (inactive) | > 100 µM (inactive) | > 100 µM (inactive) | > 100 µM (inactive) | > 100 µM (inactive) | > 100 µM (inactive) | > 100 µM (inactive) | > 100 µM (inactive)
16 | Cc1ccc(Nc2n[nH]c(=S)s2)cc1C | 72.9 µM (inactive) | 66.1 µM (inactive) | 70.6 µM (inactive) | > 100 µM (inactive) | 60.4 µM | > 100 µM (inactive) | > 100 µM (inactive) | > 100 µM (inactive) | > 100 µM (inactive) | 53.5 µM (inactive) | 40.6 µM (inactive) | > 100 µM (inactive) | > 100 µM (inactive) | 89.9 µM (inactive) | 57.9 µM (inactive) | > 100 µM (inactive) | > 100 µM (inactive) | > 100 µM (inactive) | 
17 | CCN(CC)CCC(=O)Nc1ccc2sc3ccccc3c(=O)c2n1 | 14.5 µM (inactive) | 12.9 µM (inactive) | 19.7 µM (inactive) | 12.5 µM (inactive) | 19.3 µM | 16 µM (inactive) | 0.02 µM (active) | 16.5 µM (inactive) | > 10 µM (inactive) | 13.1 µM (inactive) | 14.1 µM (inactive) | 19.8 µM (inactive) | 19.2 µM (inactive) | 22.9 µM (inactive) | 16.7 µM (inactive) | 20.6 µM (inactive) | 8.55 µM (inactive) | 18 µM (inactive) | 
